According to ChEMBL document CHEMBL1201862, “PubChem BioAssay data set” (2004):
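Values below derive from 48-hour exposures of cells grown in 96-well plates, with endpoints linearly interpolated between the two concentrations bracketing the appropriate inhibition level. At the GI50, growth is halved.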 Calls of active or inactive are those of the source. Cut-off read from the data, not from the text of the source: active = GI50 up to about 1.1 µM and inactive = higher.

Columns and labels:
Test in all cases: NCI tumour cell line growth inhibition, 48 h
HCT-116 = test system: HCT-116
CCRF-CEM = test system: CCRF-CEM
UO-31 = test system: UO-31
NCI-H226 = test system: NCI-H226
OVCAR-3 = test system: OVCAR-3
OVCAR-4 = test system: OVCAR-4
OVCAR-8 = test system: OVCAR-8
SK-OV-3 = test system: SK-OV-3
K562 = test system: K562
A549 = test system: A549
MOLT-4 = test system: MOLT-4
RPMI-8226 = test system: RPMI-8226
RXF 393 = test system: RXF 393
786-0 = test system: 786-0
NCI/ADR-RES = test system: NCI/ADR-RES
SW-620 = test system: SW-620
UACC-257 = test system: UACC-257
SK-MEL-28 = test system: SK-MEL-28
SF-539 = test system: SF-539
M19-MEL = test system: M19-MEL

SMILES	GI50 (HCT-116)	GI50 (CCRF-CEM)	GI50 (UO-31)	GI50 (NCI-H226)	GI50 (OVCAR-3)	GI50 (OVCAR-4)	GI50 (OVCAR-8)	GI50 (SK-OV-3)	GI50 (K562)	GI50 (A549)	GI50 (MOLT-4)	GI50 (RPMI-8226)	GI50 (RXF 393)	GI50 (786-0)	GI50 (NCI/ADR-RES)	GI50 (SW-620)	GI50 (UACC-257)	GI50 (SK-MEL-28)	GI50 (SF-539)	GI50 (M19-MEL)
COc1cc(NS(C)(=O)=O)ccc1Nc1c2ccccc2nc2ccccc12 [AMSACRINE]	0.955 µM (active)	0.0561 µM (active)	0.661 µM (active)	0.125 µM (active)	2.67 µM (inactive)	4.05 µM (inactive)	0.571 µM (active)	0.398 µM (active)	0.902 µM (active)	0.049 µM (active)	0.0332 µM (active)	0.352 µM (active)	1.55 µM (inactive)	0.15 µM (active)	3.42 µM (inactive)	0.561 µM (active)	2.95 µM (inactive)	2.59 µM (inactive)	0.207 µM (active)	1.89 µM (inactive)
CN(Cc1cnc2nc(N)nc(N)c2n1)c1ccc(C(=O)N[C@@H](CCC(=O)O)C(=O)O)cc1 [METHOTREXATE]	0.0347 µM (active)	0.0296 µM (active)	0.227 µM (active)	20 µM (inactive)	0.433 µM (active)	59.6 µM (inactive)	0.0292 µM (active)	20.7 µM (inactive)	0.0285 µM (active)	0.0345 µM (active)	0.0326 µM (active)	0.0661 µM (active)	20.7 µM (inactive)	0.034 µM (active)	0.0929 µM (active)	0.0388 µM (active)	0.836 µM (active)	4.86 µM (inactive)	0.0375 µM (active)	0.424 µM (active)
O=C(O)c1cc(Cl)cc(NC(=O)C(Cl)Cl)c1Cl	> 100 µM (inactive)	> 100 µM (inactive)	> 100 µM (inactive)	> 100 µM (inactive)	> 100 µM (inactive)	> 100 µM (inactive)	> 100 µM (inactive)	> 100 µM (inactive)	> 100 µM (inactive)	> 100 µM (inactive)	> 100 µM (inactive)	> 100 µM (inactive)	> 100 µM (inactive)	> 100 µM (inactive)	–	> 100 µM (inactive)	> 100 µM (inactive)	> 100 µM (inactive)	> 100 µM (inactive)	> 100 µM (inactive)
NC(=O)N=C(N(Cc1ccccc1)Cc1ccccc1)N(Cc1ccccc1)Cc1ccccc1	3.37 µM (inactive)	> 100 µM (inactive)	> 100 µM (inactive)	> 100 µM (inactive)	5.08 µM (inactive)	6.22 µM (inactive)	14.4 µM (inactive)	> 58.7 µM (inactive)	> 100 µM (inactive)	> 100 µM (inactive)	> 100 µM (inactive)	8.02 µM (inactive)	> 100 µM (inactive)	14.9 µM (inactive)	> 100 µM (inactive)	> 24.3 µM (inactive)	–	> 100 µM (inactive)	28.1 µM (inactive)	> 100 µM (inactive)
COC(=O)C1=C(C=O)C2C=CC1C2 (stereo not drawn)	58.9 µM (inactive)	25.1 µM (inactive)	> 100 µM (inactive)	> 100 µM (inactive)	55.8 µM (inactive)	> 82.8 µM (inactive)	55 µM (inactive)	> 68.7 µM (inactive)	34.2 µM (inactive)	> 100 µM (inactive)	35.6 µM (inactive)	51.1 µM (inactive)	81.5 µM (inactive)	> 92.3 µM (inactive)	> 100 µM (inactive)	43.6 µM (inactive)	47.9 µM (inactive)	> 64.3 µM (inactive)	> 100 µM (inactive)	> 45 µM (inactive)
